# Values quoted from earlier work in US12285420B2 (ACASTI PHARMA U.S., INC., priority 2018, dated 2025).
# What was measured:
# [1] = nimodipine-treated subarachnoid hemorrhage (SAH) patients
# [2] = man, oral administration
smiles,measurement,setting,value
"COCCOC(=O)C1=C(C)NC(C)=C(C(=O)OC(C)C)C1c1cccc([N+](=O)[O-])c1 (centres unmarked) [nimodipine, isopropyl 2-methoxyethyl 1,4-dihydro-2,6-dimethyl-4-(m-nitrophenyl)-3,5-pyridinedicarboxylate]",Concentration of nimodipine detected in the cerebrospinal fluid,[1],≤ 12.5 ng/mL
same,Half-life equivalent to earlier elimination rates,[2],1 to 2 h
